Results on one substance are retold here after EP0241573A1, “Topical agents for inhibiting the melanin generation” (Sansho Seiyaku Co., Ltd., priority 1986, dated 1987).

For data set [1] the following is noted: according to WHO; cited from earlier work.
A further data set has as its system mashroom tyrosinase. Put plainly: Mushroom-derived tyrosinase activity inhibition (absorbance increase at 475 nm). The following applies: aqueous solutions 0.1, 0.05 and 0.03 µl/ml; tyrosine substrate, pH 6.8, 37°C, 0-15 minutes. The format is biochemical. The procedure: Fig. 1 is a figure showing the test results of the tyrosinase activity inhibition by vitamin E solutions on mashroom tyrosinase. In the figure, -▲- stands for the absorbance at 475 nm of an aqueous solution of a concentration of vitamin E of 0.1 µl/ml, -●- for an aqueous solution of concentration of vitamin E of 0.05 µl/ml, -x- for an aqueous solution of a concentration of vitamin E of 0.03 µl/ml and -o- for an aqueous solution containing no vitamin E (control).
a. Test on the Mashroom-derived Tyrosinase Activity Inhibition
Samples were prepared by adding 1.0 ml of aqueous solutions containing vitamin E at concentrations of 0.1 µl/ml, 0.05 µl/ml and 0.03 µl/ml respectively to 1.0 ml of a tyrosine solution (0.3 mg/ml), 0.9 ml of a 0.1 M phosphate buffer (pH 6.8) and 0.1 ml of mashroom tyrosinase (400 U/ml), also a solution containing no vitamin E was prepared as a control, and the increase in absorbance at 475 nm at 37°C for 0-15 minutes was measured.

For data set [2], the target named is T1, tyrosinase from a B16 cell homogenate (Mus musculus, UniProt P11344).
T1 construct: 0.1 ml of a 11000 G supernatant of a B16 cell homogenate; endogenous in cells; host or cells: B16 mouse melanoma cells (11000 G supernatant of homogenate)
T1 sequence (P11344 19-533): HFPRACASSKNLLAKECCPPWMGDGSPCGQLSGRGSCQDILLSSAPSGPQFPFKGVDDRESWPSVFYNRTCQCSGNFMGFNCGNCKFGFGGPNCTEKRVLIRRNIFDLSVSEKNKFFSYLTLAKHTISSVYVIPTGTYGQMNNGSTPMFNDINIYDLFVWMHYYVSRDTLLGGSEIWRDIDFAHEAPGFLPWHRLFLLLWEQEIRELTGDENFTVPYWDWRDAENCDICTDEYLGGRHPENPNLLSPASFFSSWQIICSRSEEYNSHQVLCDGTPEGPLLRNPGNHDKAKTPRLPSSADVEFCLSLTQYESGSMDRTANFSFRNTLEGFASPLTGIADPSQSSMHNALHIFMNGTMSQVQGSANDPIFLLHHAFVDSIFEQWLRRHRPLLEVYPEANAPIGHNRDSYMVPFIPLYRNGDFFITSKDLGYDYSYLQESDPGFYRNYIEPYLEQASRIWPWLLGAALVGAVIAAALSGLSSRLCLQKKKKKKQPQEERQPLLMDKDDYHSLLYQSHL
Put plainly: B16 cell-derived tyrosinase activity inhibition (absorbance increase at 475 nm). Particulars: aqueous solutions 0.1, 0.05 and 0.03 µl/ml; 10 mM dopa, pH 6.8, 37°C, 0.15 minutes. It is filed as biochemical. As to the method: Fig. 2 is a figure showing the test results of the tyrosinase activity inhibition by vitamin E solutions on tyrosinase from a B16 cell homogenate. In the figure, -▲-, -●- ,-x- and -o- have the same significance as in Fig. 1.
b. Test on the B16 cell-derived tyrosinase Activity Inhibition
Samples were prepared respectively by adding 1.0 ml of aqueous solutions containing vitamin E at concentrations of 0.1 µl/ml, 0.05 µl/ml and 0.03 µl/ml prepared in the production examples described hereinbelow to 0.1 ml of a 11000 G supernatant of a B16 cell homogenate, 1.0 ml of a 10 mM dopa and 0.9 ml of a 0.1 M phosphate buffer (pH 6.8), also a solution containing no vitamin E was prepared as a control, and the increase in absorbance at 475 nm at 37°C for […] was measured.

In data set [3] the test system is B16 cells derived from the mouse melanoma. The data set is described as follows: Test on B16 cultured cells derived from mouse melanoma: degree of melanin generation (blackening/whitening) observed by the naked eye. The format is cell-based. Also noted: key: -: Not whitened at all; +: Slightly whitened; +: Considerably whitened; ++: Whitening clearly descernible; +++: Whitening proceeded to such degree that blackening cannot be observed. The following applies: culture 5 days at 37°C. As to the method: I. Test on B16 Cultured Cells Derived from Mouse Melanoma (Testing Method)
Aqueous solution of vitamin E was added 30 µg/ml, 20 µg/ml, 10 µg/ml and 2 µg/ml respectively in final concentration to the culture medium for B16 cells derived from the mouse melanoma. After culture period for 5 days at 37°C, the degree of melanin generation (degree of blackening) was observed by the naked eyes.

With vitamin E, in data set [1], the acute toxicity result is on record as “no acute toxicity”. In the data set on mashroom tyrosinase, the “effect to inhibit the mashroom tyrosinase” value was “not observed”. Besides, in data set [2], the “effect to inhibit the B16 cell tyrosinase” value is recorded as “not observed”. The “Degree of Whitening” value in data set [3] (10 µg/ml final concentration) was “+”; in data set [3] (20 µg/ml final concentration) it was “++”; in data set [3] (30 µg/ml final concentration), “+++”.
